The nature of data set [1]: Hepatoprotective activity in rat WB-F344 cells assessed as inhibition of D-galactosamine-induced toxicity at 0.1 mM by MTT method relative to control. The format is functional. On the technique in general: Formazan colour is commonly taken as a measure of viable cells.
Data set [2] is described as follows: Cytotoxicity against rat WB-F344 cells assessed as cell survival rate at 0.1 mM by MTT method relative to control. Type of data set: cell-based. The note with it: read-out: Activity.

The source of these data is ChEMBL document CHEMBL1157320, “Hepatoprotective sesquiterpene glycosides from Sarcandra glabra” (J Nat Prod, 2006).

What is called inhibition is the relative decrease from the control value, in per cent. Regarding `C=C1[C@H]2C[C@H]2[C@]2(C)[C@H](O)[C@]3(O[C@@H]4O[C@H](CO)[C@@H](O)[C@H](O)[C@H]4O)OC(=O)C(C)=C3C[C@@H]12`, in data set [1], the inhibition at 100 µM was found to be 26%. For the same molecule, the viability at 100 µM in data set [2] turned out to be 45.5%.

For the molecule `COC(=O)c1cc(OC)c2c(c1-c1c(CO)cc(OC)c3c1OCO3)OCO2` [BICYCLOL], the inhibition at 100 µM in data set [1] was determined as 27.4%. Besides, in data set [2], the viability at 100 µM came out at 46.6%.

As to `CC1=C2C[C@@H]3[C@@](C)(C=C2OC1=O)[C@@H]1C[C@@H]1[C@]3(O)CO[C@@H]1O[C@H](CO)[C@@H](O)[C@H](O)[C@H]1O` [CHLORANOSIDE A], the inhibition at 100 µM in data set [1] was 38.2%. For the same molecule, the viability at 100 µM in data set [2] worked out at 54.5%.

With `C=C1CC[C@H](O[C@@H]2O[C@H](CO)[C@@H](O)[C@H](O)[C@H]2O)[C@]2(C)C[C@@H]3OC(=O)C(C)=C3C[C@@H]12` [SARCAGLABOSIDE A], the inhibition at 100 µM in data set [1] amounted to 28.7%. Moreover, in data set [2], the viability at 100 µM turned out to be 47.5%.

With `C=C1C=C[C@H](O[C@@H]2O[C@H](CO)[C@@H](O)[C@H](O)[C@H]2O)[C@]2(C)C[C@@H]3OC(=O)C(C)=C3C[C@@H]12` [SARCAGLABOSIDE B], the inhibition at 100 µM in data set [1] turned out to be 65.9%. For the same molecule, the viability at 100 µM in data set [2] was 74.9%.

In the case of `C=C[C@]1(C)C[C@@H]2OC(=O)C(C)=C2C[C@H]1C(=C)CO[C@@H]1O[C@H](CO)[C@@H](O)[C@H](O)[C@H]1O` [SARCAGLABOSIDE C], the inhibition at 100 µM in data set [1] was 36.1%. Besides, in data set [2], the viability at 100 µM is 53%.

With `C=C[C@]1(C)C[C@@H]2OC(=O)C(C)=C2C[C@H]1C(=C)CO[C@@H]1O[C@H](CO[C@@H]2OC[C@](O)(CO)[C@H]2O)[C@@H](O)[C@H](O)[C@H]1O` [SARCAGLABOSIDE D], in data set [1], the inhibition at 100 µM was found to be 27%. The viability at 100 µM in data set [2] came to 46.3%.

Take `CC1=C2C/C=C(\CO[C@@H]3O[C@H](CO[C@@H]4OC[C@](O)(CO)[C@H]4O)[C@@H](O)[C@H](O)[C@H]3O)CC/C=C(\C)C[C@@H]2OC1=O` [SARCAGLABOSIDE E]: the inhibition at 100 µM in data set [1] was 21.7%. Also, the viability at 100 µM in data set [2] is 42.4%.
